The values below come from paper PMC8142146 (Bioorganic chemistry, 2020).

SMILES strings stand for the structures.

What all share (experiment): PARP-isoform screening, Chemiluminescent Activity Assay Kit
Common to all, as to format: biochemical

Experiment [1] addresses PARP2 (Homo sapiens, UniProt Q9UGN5). As to conditions: at 0.5 μM concentration.
The target in experiment [2] is T1, PARP10 (Homo sapiens, UniProt Q53GL7).
T1 sequence (Q53GL7 1-1025): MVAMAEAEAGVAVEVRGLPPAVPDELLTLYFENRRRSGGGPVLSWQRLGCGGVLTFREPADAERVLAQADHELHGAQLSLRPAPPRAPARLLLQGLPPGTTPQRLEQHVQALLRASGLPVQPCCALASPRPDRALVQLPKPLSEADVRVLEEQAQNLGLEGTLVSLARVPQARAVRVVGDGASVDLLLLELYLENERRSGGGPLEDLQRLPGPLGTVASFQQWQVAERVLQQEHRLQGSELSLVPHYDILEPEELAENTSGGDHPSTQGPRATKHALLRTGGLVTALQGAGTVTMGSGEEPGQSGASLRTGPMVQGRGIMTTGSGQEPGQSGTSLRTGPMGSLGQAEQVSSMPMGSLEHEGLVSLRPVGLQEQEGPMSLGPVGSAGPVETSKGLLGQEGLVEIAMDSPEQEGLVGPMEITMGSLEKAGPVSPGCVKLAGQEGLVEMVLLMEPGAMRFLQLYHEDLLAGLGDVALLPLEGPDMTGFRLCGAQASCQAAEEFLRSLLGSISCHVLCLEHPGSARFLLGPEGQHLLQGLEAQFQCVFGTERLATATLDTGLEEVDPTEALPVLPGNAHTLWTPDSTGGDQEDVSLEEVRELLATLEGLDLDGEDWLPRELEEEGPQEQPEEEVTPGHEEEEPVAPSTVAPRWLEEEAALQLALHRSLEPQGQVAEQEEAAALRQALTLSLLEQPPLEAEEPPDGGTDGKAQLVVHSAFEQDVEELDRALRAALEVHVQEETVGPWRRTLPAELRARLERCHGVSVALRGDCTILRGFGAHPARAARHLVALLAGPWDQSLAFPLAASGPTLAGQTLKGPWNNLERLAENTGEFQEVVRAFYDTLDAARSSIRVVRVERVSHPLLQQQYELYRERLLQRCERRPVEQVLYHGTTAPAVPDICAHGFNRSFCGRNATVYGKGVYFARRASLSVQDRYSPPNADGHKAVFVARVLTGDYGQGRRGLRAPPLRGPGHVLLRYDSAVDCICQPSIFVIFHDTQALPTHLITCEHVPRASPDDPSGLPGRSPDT
The conditions noted are these: Figure 5.

Experiment [3] deals with T2, TNKS2 (PARP5B) (Homo sapiens, UniProt Q9H2K2).
T2 sequence (Q9H2K2 1-1166): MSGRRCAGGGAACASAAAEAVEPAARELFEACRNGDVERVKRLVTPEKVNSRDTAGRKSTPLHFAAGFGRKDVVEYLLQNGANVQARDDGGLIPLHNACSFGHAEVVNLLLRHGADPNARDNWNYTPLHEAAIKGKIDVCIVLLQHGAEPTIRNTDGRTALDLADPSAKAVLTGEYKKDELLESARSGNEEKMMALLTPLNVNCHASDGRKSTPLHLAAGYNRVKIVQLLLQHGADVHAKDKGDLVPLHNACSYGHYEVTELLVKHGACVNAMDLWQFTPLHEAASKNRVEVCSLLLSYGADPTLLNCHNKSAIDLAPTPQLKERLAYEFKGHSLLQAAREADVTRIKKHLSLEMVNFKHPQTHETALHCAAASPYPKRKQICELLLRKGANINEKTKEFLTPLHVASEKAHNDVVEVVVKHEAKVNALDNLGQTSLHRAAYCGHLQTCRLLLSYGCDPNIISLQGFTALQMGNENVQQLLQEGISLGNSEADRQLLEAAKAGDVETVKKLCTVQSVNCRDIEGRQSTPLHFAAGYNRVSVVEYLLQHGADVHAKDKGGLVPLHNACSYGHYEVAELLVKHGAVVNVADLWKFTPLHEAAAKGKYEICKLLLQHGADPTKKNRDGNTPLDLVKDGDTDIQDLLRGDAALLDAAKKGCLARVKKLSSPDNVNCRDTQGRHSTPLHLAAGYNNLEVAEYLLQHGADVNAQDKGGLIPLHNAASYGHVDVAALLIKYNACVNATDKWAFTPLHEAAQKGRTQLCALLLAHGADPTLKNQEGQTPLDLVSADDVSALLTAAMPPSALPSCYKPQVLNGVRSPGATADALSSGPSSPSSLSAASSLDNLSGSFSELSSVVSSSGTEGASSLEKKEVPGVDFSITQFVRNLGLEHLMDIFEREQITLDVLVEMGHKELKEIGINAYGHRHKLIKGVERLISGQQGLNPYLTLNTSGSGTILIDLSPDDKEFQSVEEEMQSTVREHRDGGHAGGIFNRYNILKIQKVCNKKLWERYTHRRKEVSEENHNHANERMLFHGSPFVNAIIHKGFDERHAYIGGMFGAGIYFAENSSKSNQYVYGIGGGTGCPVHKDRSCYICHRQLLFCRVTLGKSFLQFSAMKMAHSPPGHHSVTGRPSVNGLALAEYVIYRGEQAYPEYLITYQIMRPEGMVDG
As to conditions: Figure 5.

Chain of PARP2 (Q9UGN5 whole entry): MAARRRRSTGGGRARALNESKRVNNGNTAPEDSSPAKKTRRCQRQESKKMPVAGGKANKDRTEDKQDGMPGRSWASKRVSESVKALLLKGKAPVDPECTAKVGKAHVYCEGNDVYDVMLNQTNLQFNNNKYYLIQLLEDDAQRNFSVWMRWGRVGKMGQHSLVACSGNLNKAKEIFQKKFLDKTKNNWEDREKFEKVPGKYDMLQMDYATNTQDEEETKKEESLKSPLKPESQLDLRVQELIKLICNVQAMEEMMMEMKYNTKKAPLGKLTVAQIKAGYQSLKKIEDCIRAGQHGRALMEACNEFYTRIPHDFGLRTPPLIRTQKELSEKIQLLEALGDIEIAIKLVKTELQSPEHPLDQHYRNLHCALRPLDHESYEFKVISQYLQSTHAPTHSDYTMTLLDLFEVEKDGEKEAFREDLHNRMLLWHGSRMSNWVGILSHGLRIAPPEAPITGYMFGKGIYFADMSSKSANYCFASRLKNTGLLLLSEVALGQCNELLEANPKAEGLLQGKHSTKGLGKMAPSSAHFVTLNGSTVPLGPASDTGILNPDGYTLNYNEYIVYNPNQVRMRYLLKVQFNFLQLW

Regarding `NC(=O)c1cccc2c1O/C(=C\c1ccc(O)cc1)C(=O)N2` [Compound 49, (Z)-2-(4-Hydroxybenzylidene)-3-oxo-3,4-dihydro-2H-benzo[b][1,4]oxazine-8-carboxamide], in experiment [1], the PARP2 inhibition entry is “complete inhibition”. Further, the PARP10 inhibition result in experiment [2] is “did not interfere”. The TNKS2 inhibition result in experiment [3] was “substantially inhibited”.
